Reference: publication PMC5366925, “Novel 1, 4-dihydropyridines for L-type calcium channel as antagonists for cadmium toxicity” (Scientific Reports, 2017)
Converted amounts (≈) assume the structure as drawn.

What was measured:
[1] = test system: A7r5 cells (containing L-type Ca2+ channels); test: Intracellular Ca2+ measurement (Fluo-4 NW), CaCl2/KCl-induced increase; assay type: cell-based, rat; conditions: for IC50: Rattus norvegicus, A7r5 cells, 1.5 mM CaCl2 and 50 mM KCl, mean ± SD, unit printed only in abstract, not in Table 2, read-out: Calcium overload-preventing activity (IC50), A7r5; for fold higher activity in A7r5 cells than in SH-SY5Y cells: A7r5 vs SH-SY5Y IC50
Description: (§1) The A7r5 (rat aorta smooth muscle cells) and SH-SY5Y (human neuroblastoma cell line) were obtained from the National Centre for Cell Science, Pune, India. The cells were grown at 37.5 °C in a humidified atmosphere with 5% CO2/95% air in Dulbecco’s modified Eagle medium (DMEM), restraining 2 mM of glutamine and supplemented with 10% fetal bovine serum. Once a week the cells were passaged using 0.25% trypsin, 0.53 mM EDTA (Ethylene diamine tetra acetic acid) solution and grown in […] plastic culture flasks until confluence.
(§2) In the experiment, SH-SY5Y cells were plated in 96-well plates at a density of 30,000 cells per well and incubated for 24 h. A7r5 cells were seeded into 96-well plates at a density of 10,000 cells per well and incubated for 72 h. the intracellular [Ca^2+]i concentration changes were studied using the Fluo-4 NW Calcium Assay Kit (Invitrogen, Sweden), as per the manufacturer’s instructions. Both SH-SY5Y and A7r5 cells were loaded with […] for 45 min. Then, the cells were pre-incubated in the dark for 15 min with the tested compounds at concentrations from […]. The compounds were dissolved in distilled water. Application of carbachol (100 nM) to Fura-4 loaded SH-SY5Y cells was used to stimulate changes in the intracellular [Ca^2+]i concentration, whereas A7r5 cells were treated with 1.5 mM CaCl2 and KCl (50 mM) for 5 min to induce an increase in the [Ca^2+] ion concentration. The intracellular [Ca^2+] ion concentration was measured using the fluorescence spectrophotometer’s (Thermo Ascient, Hyderabad) settings appropriate for an excitation at 494 nm and an emission at 516 nm. Amlodipine was used as the positive control. IC50 values as mean ± SD were calculated using Graph Pad Prism 5.0 software.

[2] = test system: SH-SY5Y cells (containing L- and N-type Ca2+ channels); test: Intracellular Ca2+ measurement (Fluo-4 NW), carbachol-induced increase; assay type: cell-based; conditions: Homo sapiens, carbachol 100 nM, mean ± SD, unit printed only in abstract, not in Table 2, read-out: Calcium overload-preventing activity (IC50), SH-SY5Y
Description: as §1, §2

A7r5 cells = test: Cadmium cytotoxicity study (LDH release); assay type: cell-based, rat; conditions: for fold decrease in cell lethality (ratio of LC50 vs CdCl2 alone): then CdCl2 for 4 h
Description: The A7r5 cell line was obtained from National Center for Cell Sciences, Pune, India. The cells were grown in Dulbecco’s Modified Eagles Medium (DMEM) supplemented with 5% fetal bovine serum at 37 °C in an atmosphere of 90% air/10% CO2. For determinations of cell viability, A7r5 cells were removed from stock flasks by mild digestion with trypsin-EDTA solution and the stock cultures were developed in 25 cm^2 culture flasks and all trials were done in 96 micro titer plates. After plating, the cells were allowed to grow to confluence for 7–10 days before use.
The rat aorta smooth muscle A7r5 cells received one of the four treatments following overnight incubation. The first group received CdCl2 at 1, 10, 20, 30, 40, 50 μM prepared in complete culture for 4 h incubation. The second group received pretreatment with 200 μM AD for 1 h followed by the addition of 1, 10, 20, 30, 40, 50 μM CdCl2 for 4 h incubation. The third group received pretreatment with 200 μM compound 5a for 1 h followed by the addition of 1, 10, 20, 30, 40, 50 μM CdCl2 for 4 h incubation. The fourth group received pretreatment with 200 μM compound 5a for 1 h followed by the addition of 1, 10, 20, 30, 40, 50 μM CdCl2 for 4 h incubation. The CdCl2 different concentrations used in this test were chosen based on preliminary studies to identify concentrations which ranged from producing no effects to cytolethality. A short term exposure (4 h) was chosen to evaluate the effects of metallothionein induction. The cell viability was assessed by measurement of (Lactate Dehydrogenase) LDH released into the medium. LDH release was expressed as a percent of the maximum after lysis of cells with TritonX-100.

[3] = test system: mitochondrial functioning; test: Effect on mitochondrial functioning; conditions: at concentrations close to those demonstrating L-type calcium channel blocking activity

Compound | IC50 [1] [µg/mL] | IC50 [2] [µg/mL] | fold decrease in cell lethality (ratio of LC50 vs CdCl2 alone) (A7r5 cells; 200 μM for 1 h pretreatment) [fold] | effect on mitochondrial functioning [3] | fold higher activity in A7r5 cells than in SH-SY5Y cells [1] | loss of cell viability ablated by pretreatment (A7r5 cells; 200 μM for 1 h pretreatment, 20 μM CdCl2) [%] | effect on LDH leakage (A7r5 cells; 1 h pretreatment with 200 μM, compound alone) | CC50 (A7r5 cells; 4 h exposure, CdCl2 alone, read-out: LC50 (CdCl2 induced cell death)) [µM]
CCOC(=O)NCCOCC1=C(C(=O)OCC)C(c2ccccc2Cl)C(C(=O)OC)=CN1 (centres unmarked) [3d] | 4.25 ± 0.25 (≈ 9.1 µM) | 14 ± 0.39 (≈ 30 µM) | – | – | – | – | – | –
CCOC(=O)C1=C(COCCNC(=O)OCC(C)C)NC=C(C(=O)OC)C1c1ccccc1Cl (centres unmarked) [3e] | 8.35 ± 0.52 (≈ 16.9 µM) | 40 ± 0.43 (≈ 80.8 µM) | – | – | – | – | – | –
CCOC(=O)C1=C(COCCNS(=O)(=O)c2ccc([N+](=O)[O-])cc2)NC=C(C(=O)OC)C1c1ccccc1Cl (centres unmarked) [5a] | 0.18 ± 0.02 (≈ 0.31 µM) | 8 ± 0.23 (≈ 13.8 µM) | 2.5 | did not affect mitochondrial functioning | at least 10 fold | – | – | –
CCOC(=O)C1=C(COCCNS(=O)(=O)c2ccc(Br)cc2)NC=C(C(=O)OC)C1c1ccccc1Cl (centres unmarked) [5b] | 0.52 ± 0.48 (≈ 0.847 µM) | 20 ± 0.52 (≈ 32.6 µM) | – | – | – | – | – | –
CCOC(=O)C1=C(COCCNS(=O)(=O)c2ccc(Cl)c([N+](=O)[O-])c2)NC=C(C(=O)OC)C1c1ccccc1Cl (centres unmarked) [5c] | 0.43 ± 0.52 (≈ 0.7 µM) | 15 ± 0.53 (≈ 24.4 µM) | – | – | – | – | – | –
CCOC(=O)C1=C(COCCNS(=O)(=O)c2ccc(F)cc2)NC=C(C(=O)OC)C1c1ccccc1Cl (centres unmarked) [5d] | 0.59 ± 0.61 (≈ 1.07 µM) | 21 ± 0.49 (≈ 38 µM) | – | – | – | – | – | –
CCOC(=O)C1=C(COCCNS(=O)(=O)C(F)(F)F)NC=C(C(=O)OC)C1c1ccccc1Cl (centres unmarked) [5e] | 0.25 ± 0.63 (≈ 0.474 µM) | 10 ± 0.18 (≈ 19 µM) | 2.3 | did not affect mitochondrial functioning | at least 10 fold | – | – | –
CCOC(=O)C1=C(COCCN)NC(C)=C(C(=O)OC)C1c1ccccc1Cl (centres unmarked) [Amlodipine, reference compound] | 0.45 ± 0.52 (≈ 1.1 µM) | 11 ± 0.61 (≈ 26.9 µM) | 2.0 | – | – | 75 | did not affect LDH leakage | –
[Cl][Cd][Cl] [CdCl2] | – | – | – | – | – | – | – | 30.2 ± 0.82
